In US20140100107A1, “TERNARY FUNGICIDAL COMPOSITIONS COMPRISING A DITHIINO-TETRACARBOXAMIDE FUNGICIDE” (BAYER INTELLECTUAL PROPERTY GMBH, priority 2011, published 2014):

Test system: Alternaria solani
Experiment: Alternaria test (tomatoes)/preventive
Type: in vivo
Settings: preventive spray, evaluated 3 days after inoculation
Procedure: Alternaria Test (Tomatoes)/Preventive [table] To produce a suitable preparation of active compound, 1 part by weight of active compound is mixed with the stated amounts of solvent and emulsifier, and the concentrate is diluted with water to the desired concentration. To test for preventive activity, young plants are sprayed with the preparation of active compound at the stated rate of application. After the spray coating has dried on, the plants are inoculated with an aqueous spore suspension of Alternaria solani. The plants are then placed in an incubation cabinet at approximately 20° C. and a relative atmospheric humidity of 100%. The test is evaluated 3 days after the inoculation. 0% means an efficacy which corresponds to that of the untreated control while an efficacy of 100% means that no disease is observed.

Row | Structure (SMILES) | Efficacy in % found (activity found) (application rate 10 ppm a.i.) [%] | Efficacy in % found (activity found) (application rate 1 ppm a.i.) [%]
1 | Cn1c(=O)c2sc3c(=O)n(C)c(=O)c3sc2c1=O [(1.1), 2,6-dimethyl-1H,5H-[1,4]dithiino[2,3-c:5,6-c′]dipyrrole-1,3,5,7(2H,6H)-tetrone] | 0 | –
2 | CC(C)(C)C(O)(CCc1ccc(Cl)cc1)Cn1cncn1 (stereo not drawn) [(3.47), tebuconazole] | – | 21
3 | O=C(NCCc1ncc(C(F)(F)F)cc1Cl)c1ccccc1C(F)(F)F [(2.6), fluopyram] | – | 7
